Source: patent US20230285601A1, “NON DEGRADABLE RADIO-OPAQUE EMBOLISATION MICROSPHERE” (GUERBET, priority 2019, published 2023)

Assays:
[1] = Release in vitro of anticancer drugs from the radiopaque microspheres; format: physicochemical; conditions: for Time for 50% release / Time for complete release / % elution at 1 h: microspheres with methacrylic acid, 37° C., 150 rpm; for % elution at 1 h: pH 7.4 buffer
Description: To study the release of doxorubicin from the microspheres, the sediments are washed in 10 mL of water, before adding 50 mL of buffer 50 mM Tris-HCl, 0.9% NaCl, pH 7.4. Incubation takes place at 37° C. with stirring. The release of doxorubicin is measured at different times at 490 nm.
To study the release of irinotecan, the microspheres are washed in 10 mL of water, and then 50 mL of PBS (10 mM Na2HPO4, 1.8 mM KH2PO4, 138 mM NaCl, 2.7 mM KCl, pH 7.4) equilibrated at 37° C. is added. The release of the drug over time is measured by reading the absorbance at 370 nm.
To study the release of sunitinib, the microspheres are washed in 10 mL of water, and then 50 mL of PBS equilibrated at 37° C. is added. The release of the drug over time is measured by reading the absorbance at 405 nm.
To study the release of vandetanib, the microspheres are washed in 10 mL of water, and then 50 mL of PBS equilibrated at 37° C. is added. The release of the drug over time is measured by reading the absorbance at 254 nm.

[2] = Loading of anticancer drugs on the radiopaque microspheres; format: physicochemical
Description: The tests of loading and controlled release of anticancer drugs were performed on radiopaque microspheres of 100-300 µm sterilized by autoclaving and comprising or not comprising an ionized or ionizable monomer such as methacrylic acid.
The microspheres with methacrylic acid are microspheres from batch 13, the composition of which is given in example 3. The microspheres without methacrylic acid have the same composition as the microspheres from batches L1 and L1Bis described in example 5.
Loading with doxorubicin: the target for loading is 37.5 mg of doxorubicin per ml of microspheres. For this, 3.8 mL of doxorubicin-HCl (Adriblastine®, Pfizer) in solution in water at 2.5 mg/mL is added to 250 µL of wet sediment of microspheres. After mixing by inversion, the suspension is made up to 6 mM with sodium bicarbonate (Lavoisier). Loading is carried out at room temperature and with stirring for one hour. Measurement of the residual amount of doxorubicin (absorbance at 490 nm) present in the supernatants serves for determining the amount of drug loaded on the microspheres.
Loading with irinotecan: the loading target is 50 mg of irinotecan per mL of microspheres. […] After 30 minutes, measurement of the residual amount of irinotecan (absorbance at 370 nm) in the supernatant serves for determining the amount loaded on the microspheres.
Loading with sunitinib: The sediments of the radiopaque microspheres are incubated for 1 h at room temperature in 10 mL of sunitinib in the form of malate (LC Laboratories) at 1 mg/mL in water. […] After stirring for 1 h on a wheel, measurement of the residual amount of sunitinib (absorbance at 405 nm) in the supernatant serves for determining the amount loaded on the microspheres.
Loading with vandetanib: The sediments of the radiopaque microspheres are incubated for 2 h at room temperature in 10 mL of a water/DMSO (1/1) mixture containing 5 mg of vandetanib (LC Laboratories). The residual amount of vandetanib in the supernatants is measured at 254 nm in order to calculate the amount loaded on the microspheres. […]

[3] = 100-300 µm radiopaque microspheres with methacrylic acid (batch 13)

| Release (elution in PBS), in words ([1]; compared with irinotecan) | Time for 50% release [1] | Time for complete release [1] | % elution at 1 h [1] | Loading (mg of drug / mL of wet sediment) [2, 3] | Loading (mg of drug / mL of wet sediment) ([2]; 100-300 µm radiopaque microspheres without methacrylic acid) | Structure (SMILES) |
| --- | --- | --- | --- | --- | --- | --- |
| slower, being spread over several days | 1 days | 1 week | 26% | 36.8 mg of drug / mL of wet sediment | 29.8 mg of drug / mL of wet sediment | COc1cccc2c1C(=O)c1c(O)c3c(c(O)c1C2=O)C[C@@](O)(C(=O)CO)C[C@@H]3O[C@H]1C[C@H](N)[C@H](O)[C@H](C)O1 [Doxorubicin, doxorubicin] |
|  | 0.042 days | 1 days | 50% | 46 mg of drug / mL of wet sediment |  | CCc1c2c(nc3ccc(OC(=O)N4CCC(N5CCCCC5)CC4)cc13)-c1cc3c(c(=O)n1C2)COC(=O)[C@]3(O)CC [Irinotecan, irinotecan] |
